# Experimental data reported in patent publication US12692274B2, “Tetrahydroisoquinoline derivatives for the treatment of red blood disorders and inflammatory diseases” (Sanofi, priority 2020, dated 2026).
# Where “and” joins values, the source holds several entries; their conditions need not be identical. Equal values may be shown once.
# How the values were obtained:
# [1] = molecular target: HIS-Keap1 full length / Biotin-Nrf2 (16-mer) (Homo sapiens, UniProt Q14145); test: biochemical
# [2] = tested on: NQO1 activation in BEAS-2B cells; test: BEAS-2B cellular MTT assay of NQO1 activation, 0% HSA; format: cell-based
# Procedure: (§1) The growth rate of the BEAS-2B cells changed based on the lot of BEGM SingleQuots in the BEGM media. The cell growth rate was determined for each lot of SingleQuots. Ideally, cells were thawed into media with the new lot of SingleQuots and grown for two passages before testing; however, growing an active culture in the new lot of media for two to three passages before testing was also acceptable. Until the cell growth rate was determined, cells were seeded at different densities (cells/cm^2) in multiple tissue culture flasks in order to avoid the cells becoming more than 70% confluent. Cells should not go above 70% confluent as the cells differentiate when they become confluent. After the cells were grown in the new lot of media as described above, the number of cells per well needed to seed in the collagen plates was determined by seeding different numbers of cells per well and incubating for 48 hours. Cell confluency was checked after 48 hours and a cell number that results in just below to just above confluency was chosen for future plate seeding. Cell confluency in the assay plate was 95-100% confluent after 48 hours.
# (§2) Cell media consists of BEBM basal media with the BEGM SingleQuots added. SingleQuots vials were thawed in the tissue culture hood, and GA-1000 (Gentamicin-Amphotericin) was not added.
# (§3) If complete media was to be used immediately, BEBM basal media was warmed to room temperature in the hood, but not as high as 37° C. When the media was made for future use, SingleQuots were added to cold BEBM. One at a time, the SingleQuots components (except GA-1000) were added to the BEBM media. After removal of each component from the vial, the vial was rinsed with 0.5-1 mL of BEBM (depending on the volume the vial could hold) and added to the bottle of BEBM. Once all components were added, the label that comes with the SingleQuots kit was put on the bottle of media and the date was recorded. The bottle of media was mixed by gentle shaking. The media was not filtered. This media was stored at 4° C., with any leftover media disposed of one month after the date the SingleQuots were added.
# (§4) BEAS-2B Cell Splitting Protocol:
# (§5) First, Trypsin was warmed to 37° C. in the water bath. The media was then warmed to room temperature by letting it sit in the tissue culture hood, but not as high as 37° C. The media was aspirated from flask(s) and the flask(s) were washed with PBS. From 1 to 1.5 mL of warm trypsin were added to each flask and incubated at 37° C. until cells came off the flask on their own (~8-10 minutes), with no vigorous tapping on the flask to detach the cells.
# (§6) Media was added to each flask to a total volume of 8-10 mL per flask and transferred to 15 mL conical tube(s). The cells were spun down at 120 g for 5 minutes, level 5 brake. The cells can be spun down between 100 and 150 g. Next the media was aspirated and the cell pellet was resuspended in fresh media by pipetting up and down and flicking the tube side to side. Any clumps of cells that remained were allowed to settle to the bottom of the tube before the top suspension was transferred into another tube, leaving about 1 mL of media in the original tube. The 1 mL of media and cell clumps were mixed with a single channel p1000 pipette, and any remaining clumps were removed before adding the cells in suspension to the other tube. The suspension was mixed with a pipette, an aliquot was removed, and the cells were counted. The amount of cells/cm^2 desired was calculated and the required volume of cells was added to tissue culture flasks. For example, use of SingleQuots with ~6000 cells/cm^2 was appropriate for a three day incubation and ~3000 cells/cm^2 for a five day incubation. Optimal cell density differed depending on lot of SingleQuots. The flasks were incubated at 37° C. in 5% CO2.
# (§7) Day One: Seeding BEAS-2B Cells in Collagen Plates:
# (§8) Plate(s) were either seeded with 0.3% or 0% HSA. While the protocol was similar for both conditions any differences are noted herein below. […]
# [3] = tested on: NQO1 activation in BEAS-2B cells; test: BEAS-2B cellular MTT assay of NQO1 activation, 0.3% HSA; format: cell-based
# Procedure: as §1, §2, §3, §4, §5, §6, §7, §8
# [4] = serum free, read-out: BEAS EC50 (nM) serum free
# [5] = Homo sapiens, Serum Free W, read-out: BEAS EC50 (nM) Serum Free W
# [6] = Serum Free W, read-out: BEAS EC50 (nM) Serum Free W
# [7] = BEAS+ W, read-out: BEAS+ W EC50
# [8] = Homo sapiens, BEAS+ W, read-out: BEAS+ W EC50
# [9] = Homo sapiens, serum free, read-out: BEAS EC50 (nM) serum free
# [10] = Homo sapiens, BEAS+, read-out: BEAS+ EC50
# Sequence of HIS-Keap1 full length / Biotin-Nrf2 (16-mer) (Q14145 whole entry): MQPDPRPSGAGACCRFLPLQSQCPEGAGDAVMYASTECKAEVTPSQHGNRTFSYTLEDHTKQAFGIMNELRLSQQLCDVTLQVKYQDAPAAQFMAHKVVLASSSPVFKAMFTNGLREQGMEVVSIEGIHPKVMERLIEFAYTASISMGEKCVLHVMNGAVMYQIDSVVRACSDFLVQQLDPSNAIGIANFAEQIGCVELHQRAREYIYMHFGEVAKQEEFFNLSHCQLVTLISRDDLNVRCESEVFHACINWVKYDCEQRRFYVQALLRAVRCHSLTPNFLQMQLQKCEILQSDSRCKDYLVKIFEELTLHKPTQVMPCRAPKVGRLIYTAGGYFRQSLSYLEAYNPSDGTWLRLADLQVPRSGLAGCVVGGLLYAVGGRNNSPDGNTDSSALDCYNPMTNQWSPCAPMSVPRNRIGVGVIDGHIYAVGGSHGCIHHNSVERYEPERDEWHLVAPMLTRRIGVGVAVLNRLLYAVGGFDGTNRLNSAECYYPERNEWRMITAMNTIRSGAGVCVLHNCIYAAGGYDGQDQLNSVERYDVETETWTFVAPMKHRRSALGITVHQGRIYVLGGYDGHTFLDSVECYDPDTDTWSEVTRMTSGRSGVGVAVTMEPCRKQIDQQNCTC
Compound,"EC50 [2, 4]","EC50 ([3]; BEAS+, read-out: BEAS+ EC50)","EC50 [2, 5]","EC50 [2, 6]","EC50 [2, 9]","EC50 [3, 10]",other results
"O=C(O)CC1c2ccc3c(c2)CN(CC3)C(=O)c2ccc(cc2)OCC=CCn2nnc3cc1ccc32 (mixture of isomers) [Compound 419, 2-[(12E)-20-oxo-15-oxa-8,9,10,21-tetrazahexacyclo[19.5.3.216,19.13,7.06,10.024,28]dotriaconta-1(27),3,5,7(32),8,12,16(31),17,19(30),24(28),25-undecaen-2-yl]acetic Acid]",,,,,,,IC50 [1]: 5.7 nM and 19.1 nM and 16.8 nM and 10.8 nM
Cc1c2ccc3c1nnn3CCCCCCc1ccc(cc1)C(=O)N1CCc3ccc(cc3C1)[C@@H]2[C@@H](C)C(=O)O (racemic) [Compound 201],0.3 nM and 0.1 nM,0.5 nM and 0.2 nM,,,,,
Cc1c2ccc3c1nnn3CCCCCc1ccc(c3c1ccn3C)C(=O)N1CCc3ccc(cc3C1)[C@@H]2CC(=O)O [Compound 26],,,,,,,IC50 [1]: 0.4 nM and 0.3 nM
Cc1c2ccc3c1nnn3CCCCCCc1ccc(c3c1ccn3C)C(=O)N1CCc3ccc(cc3C1)[C@@H]2CC(=O)O [Compound 27],,,,,,,IC50 [1]: 0.4 nM and 0.3 nM
Cc1cc2ncc1[C@H](C(C)(C)C(=O)O)c1ccc3c(c1)CN(CC3)C(=O)c1ccc(cc1)CCCCCO2 [Compound 53],,,8.7 nM,12.3 nM,,,"EC50 [3, 7]: 47.8 nM; EC50 [3, 8]: 38.5 nM"
Cc1cc2ncc1[C@@H](C(C)(C)C(=O)O)c1ccc3c(c1)CN(CC3)C(=O)c1ccc(cc1)CCCCCO2 [Compound 54],,,0.2 nM,0.1 nM,,,
C[C@@H](C(=O)O)[C@H]1c2ccc(nc2)OCCCCCc2ccc(cc2)C(=O)N2CCc3ccc1cc3C2 [Compound 57],,,,0.3 nM,,,"EC50 [3, 7]: 0.6 nM"
Cc1cc2cnc1OCCCCCc1ccc(cc1)C(=O)N1CCc3ccc(cc3C1)[C@@H]2[C@H](C)C(=O)O [Compound 71],,,3.4 nM,3.3 nM,,,"EC50 [3, 7]: 13.2 nM; EC50 [3, 8]: 10.5 nM"
Cc1cc2cnc1OCCCCCc1ccc(cc1)C(=O)N1CCc3ccc(cc3C1)[C@@H]2[C@@H](C)C(=O)O [Compound 72],,,> 1000 nM,1930 nM,,,"EC50 [3, 7]: 7720 nM; EC50 [3, 8]: 9870 nM"
COc1cc2ncc1[C@@H](CC(=O)O)c1ccc3c(c1)CN(CC3)C(=O)c1ccc(cc1)CCCCCO2 [Compound 73],,,287 nM,373 nM,,,"EC50 [3, 7]: 590 nM; EC50 [3, 8]: 464 nM"
COc1cc2ncc1[C@H](CC(=O)O)c1ccc3c(c1)CN(CC3)C(=O)c1ccc(cc1)CCCCCO2 [Compound 79],,,733 nM,810 nM,,,"EC50 [3, 7]: 2040 nM; EC50 [3, 8]: 1720 nM"
Cc1cc2ncc1[C@@H]([C@@H](C)C(=O)O)c1ccc3c(c1)CN(CC3)C(=O)c1ccc(cc1)CCCCCO2 [Compound 82],,,594 nM,641 nM,,,"EC50 [3, 7]: 1760 nM; EC50 [3, 8]: 1960 nM"
Cc1cc2ncc1[C@@H]([C@H](C)C(=O)O)c1ccc3c(c1)CN(CC3)C(=O)c1ccc(cc1)CCCCCO2 [Compound 84],,,7.4 nM,6.2 nM,,,"EC50 [3, 7]: 30 nM; EC50 [3, 8]: 26.3 nM"
COc1cc2ccc1C(=O)N1CCc3ccc(cc3C1)[C@H](CC(=O)O)c1ccc3c(nnn3CCCCCC2)c1C [Compound 108],,,7.2 nM,7.9 nM,,,
COc1cc2ccc1C(=O)N1CCc3ccc(cc3C1)[C@@H](CC(=O)O)c1ccc3c(nnn3CCCCCC2)c1C [Compound 109],,,32.1 nM,38 nM,,,"EC50 [3, 7]: 100 nM; EC50 [3, 8]: 172 nM"
Cc1c2ccc3c1nnn3CCCCCc1ccc(cc1)C(=O)N1CCc3ccc(cc3C1)[C@@H]2[C@H](C)C(=O)O [Compound 116],,,130 nM,84.8 nM,,,"EC50 [3, 7]: 252 nM; EC50 [3, 8]: 212 nM"
Cc1c2ccc3c1nnn3CCCCCCc1ccc(cc1)C(=O)N1CCc3ccc(cc3C1)[C@@H]2[C@@H](C)C(=O)O [Compound 132],,,> 1000 nM,,,,"EC50 [3, 8]: > 10000 nM"

Compound,"EC50 [2, 4]","EC50 ([3]; BEAS+, read-out: BEAS+ EC50)","EC50 [2, 5]","EC50 [2, 6]","EC50 [2, 9]","EC50 [3, 10]",other results
Cc1c2ccc3c1nnn3CCCCCCOc1ccc(c(F)c1)C(=O)N1CCc3ccc(cc3C1)[C@H]2[C@@H](C)C(=O)O [Compound 152],,,,,> 10000 nM,> 10000 nM,
Cc1c2ccc3c1nnn3CCCCCCOc1ccc(c(F)c1)C(=O)N1CCc3ccc(cc3C1)[C@H]2[C@H](C)C(=O)O [Compound 156],44.3 nM,171 nM,,,55.9 nM,201 nM,
Cc1c2ccc3c1nnn3CCCCCc1ccc(cc1)C(=O)N1CCc3ccc(cc3C1)[C@@H]2[C@H](C)C(=O)O [Compound 160],7 nM,13.2 nM,,,9.4 nM,12.4 nM,
Cc1c2ccc3c1nnn3CCCCCCc1ccc(cc1)C(=O)N1CCc3ccc(cc3C1)[C@@H]2[C@@H](C)C(=O)O [Compound 176],0.8 nM,0.2 nM,,,0.5 nM,0.1 nM,
Cc1c2ccc3c1nnn3CCCCCCOc1ccc(c(F)c1)C(=O)N1CCc3ccc(cc3C1)[C@@H]2[C@H](C)C(=O)O [Compound 177],36.1 nM,140 nM,,,43.7 nM,107 nM,
Cc1c2ccc3c1nnn3CCCCCCOc1ccc(c(F)c1)C(=O)N1CCc3ccc(cc3C1)[C@@H]2[C@@H](C)C(=O)O [Compound 181],3.4 nM,6.6 nM,,,3.6 nM,5.3 nM,
COc1cc2ccc1C(=O)N1CCc3ccc(cc3C1)C(CC(=O)O)c1ccc3c(nnn3CCCCCC2)c1C (stereo not shown) [Compound 188],9.1 nM,14.9 nM,,,9.4 nM,15.3 nM,
Cc1cc2ccc1C(=O)N1CCc3ccc(cc3C1)[C@H](CC(=O)O)c1ccc3c(nnn3CCCCCC2)c1C [Compound 245],18.5 nM,37.6 nM,,,19.4 nM,24.8 nM,
Cc1c2ccc3c1nnn3CCCCCCOc1ccc(c(F)c1)C(=O)N1CCc3ccc(cc3C1)[C@H]2CC(=O)O [Compound 255],4 nM,289 nM,,,4.8 nM,288 nM,
Cc1c2ccc3c1nnn3CCCCCCOc1ccc(c(F)c1)C(=O)N1CCc3ccc(cc3C1)[C@@H]2CC(=O)O [Compound 257],4.3 nM,146 nM,,,7.4 nM,228 nM,
CC(C)(C(=O)O)C1c2ccc3c(c2)CN(CC3)C(=O)c2ccc(cc2)OCCCCCCn2nnc3cc1ccc32 (stereo not shown) [Compound 287],,,,,3.1 nM,112 nM,
Cc1cc2ccc1C(=O)N1CCc3ccc(cc3C1)C(CC(=O)O)c1ccc3c(nnn3CCCCCC2)c1C (stereo not shown) [Compound 295],,,,,0.2 nM,0.7 nM,
Cc1c2ccc3c1nnn3CCCCCCOc1ccc(c(F)c1)C(=O)N1CCc3ccc(cc3C1)C2CC(=O)O (stereo not shown) [Compound 317],,,,,0.6 nM,11.9 nM,
O=C(O)CC1c2ccc3c(c2)CN(CC3)C(=O)c2ccc(cc2)OCCCCCCn2nnc3cc1ccc32 (stereo not shown) [Compound 329],,,,,403 nM,1230 nM,
Cc1cc2ccc1C(=O)N1CCc3ccc(cc3C1)C(CC(=O)O)c1ccc3c(c1)nnn3CCCCCO2 (stereo not shown) [Compound 330],,,,,1070 nM,862 nM,
O=C(O)CC1c2ccc3c(c2)CN(CC3)C(=O)c2ccc(cc2)OCCCCCn2nnc3cc1ccc32 (stereo not shown) [Compound 334],,,,,547 nM,898 nM,
Cc1c2ccc3c1nnn3CCOCCCOc1ccc(c(F)c1)C(=O)N1CCc3ccc(cc3C1)C2CC(=O)O (stereo not shown) [Compound 382],125 nM,136 nM,,,86.2 nM,169 nM,
